The values below come from the NIST ThermoML archive (doi:10.1016/j.jct.2013.11.027).

“And” between values parts separate entries of the source, which are not always exact repeats. Equal values may be shown once. Numbers after ± are expanded uncertainties.

Usually speed of sound stands for how fast a sound wave travels through the sample. A word on the mass density: it is mass per unit of volume.

Test in the first data set: not given
The note with it: 293.15 K; 101.33 kPa; Liquid; Sing-around technique in a fixed-path interferometer.
For `C1COCCO1` [1,4-dioxane], the speed of sound turned out to be 1367.2 ± 1.2 m/s.
On the same count and under the same terms, in the case of `CCCCCCCC[n+]1ccn(C)c1.F[B-](F)(F)F` [1-methyl-3-octylimidazolium tetrafluoroborate] it was 1495.5 ± 2.3 m/s.
Still for that read-out and setting: the figure for `C1CCOC1` [tetrahydrofuran] is 1304.6 ± 1.4 m/s; for `CCCCCCn1cc[n+](C)c1.F[B-](F)(F)F` [1-hexyl-3-methylimidazolium tetrafluoroborate] it is 1509.3 ± 2.3 m/s.

The data set is the same for the next values; noted with them: 293.15 K; 101.33 kPa; Liquid; Vibrating tube method.
For `C1COCCO1` [1,4-dioxane], the mass density was found to be 1033.5 ± 0.12 kg/m3.
Same read-out and setting: in the case of `CCCCCCCC[n+]1ccn(C)c1.F[B-](F)(F)F` [1-methyl-3-octylimidazolium tetrafluoroborate] it was 1100.59 ± 1.1 kg/m3; in that of `C1CCOC1` [tetrahydrofuran], 888.69 ± 0.17 kg/m3; in that of `CCCCCCn1cc[n+](C)c1.F[B-](F)(F)F` [1-hexyl-3-methylimidazolium tetrafluoroborate], 1148.76 ± 1.1 kg/m3.

Staying with this data set, now noted: 298.15 K; 101.33 kPa; Liquid; Sing-around technique in a fixed-path interferometer.
Turning to `C1COCCO1` [1,4-dioxane], the speed of sound amounted to 1345 ± 1.2 m/s.
On the same count and under the same terms, in the case of `CCCCCCCC[n+]1ccn(C)c1.F[B-](F)(F)F` [1-methyl-3-octylimidazolium tetrafluoroborate] it was 1481.1 ± 2.3 m/s; in that of `C1CCOC1` [tetrahydrofuran], 1280.5 ± 1.4 m/s; in that of `CCCCCCn1cc[n+](C)c1.F[B-](F)(F)F` [1-hexyl-3-methylimidazolium tetrafluoroborate], 1496.7 ± 2.3 m/s.

The same data set, now with this note: 298.15 K; 101.33 kPa; Liquid; Vibrating tube method.
Turning to `C1COCCO1` [1,4-dioxane], the mass density is 1027.85 ± 0.12 kg/m3.
Turning to `CCCCCCCC[n+]1ccn(C)c1.F[B-](F)(F)F` [1-methyl-3-octylimidazolium tetrafluoroborate], the mass density is recorded as 1097.61 ± 1 kg/m3.
On the same count and under the same terms, in the case of `C1CCOC1` [tetrahydrofuran] it was 882.21 ± 0.17 kg/m3 and 882.209 ± 0.17 kg/m3; in that of `CCCCCCn1cc[n+](C)c1.F[B-](F)(F)F` [1-hexyl-3-methylimidazolium tetrafluoroborate], 1145.11 ± 1.1 kg/m3.

The data set is the same for the next values; noted with them: 303.15 K; 101.33 kPa; Liquid; Sing-around technique in a fixed-path interferometer.
Turning to `C1COCCO1` [1,4-dioxane], the speed of sound amounted to 1323 ± 1.2 m/s.
On the same count and under the same terms, the figure for `CCCCCCCC[n+]1ccn(C)c1.F[B-](F)(F)F` [1-methyl-3-octylimidazolium tetrafluoroborate] is 1467.3 ± 2.3 m/s.
The same measure, in the same setting: in the case of `C1CCOC1` [tetrahydrofuran] it was 1256.4 ± 1.4 m/s.
On the same count and under the same terms, in the case of `CCCCCCn1cc[n+](C)c1.F[B-](F)(F)F` [1-hexyl-3-methylimidazolium tetrafluoroborate] it was 1484.3 ± 2.3 m/s.

Still in this data set, the particulars now being: 303.15 K; 101.33 kPa; Liquid; Vibrating tube method.
Consider `C1COCCO1` [1,4-dioxane], for which the mass density worked out at 1022.19 ± 0.12 kg/m3.
Still for that read-out and setting: the figure for `CCCCCCCC[n+]1ccn(C)c1.F[B-](F)(F)F` [1-methyl-3-octylimidazolium tetrafluoroborate] is 1094.07 ± 1 kg/m3; for `C1CCOC1` [tetrahydrofuran] it is 877.7 ± 0.17 kg/m3.
On the same count and under the same terms, the figure for `CCCCCCn1cc[n+](C)c1.F[B-](F)(F)F` [1-hexyl-3-methylimidazolium tetrafluoroborate] is 1141.47 ± 1.1 kg/m3.

The same data set, now with this note: 308.15 K; 101.33 kPa; Liquid; Sing-around technique in a fixed-path interferometer.
Take `C1COCCO1` [1,4-dioxane]: the speed of sound is 1301.1 ± 1.2 m/s.
As to `CCCCCCCC[n+]1ccn(C)c1.F[B-](F)(F)F` [1-methyl-3-octylimidazolium tetrafluoroborate], the speed of sound was found to be 1453.9 ± 2.3 m/s.
In the case of `C1CCOC1` [tetrahydrofuran], the speed of sound amounted to 1232.5 ± 1.4 m/s.
On the same count and under the same terms, in the case of `CCCCCCn1cc[n+](C)c1.F[B-](F)(F)F` [1-hexyl-3-methylimidazolium tetrafluoroborate] it was 1472 ± 2.3 m/s.

The data set is the same for the next values; noted with them: 308.15 K; 101.33 kPa; Liquid; Vibrating tube method.
In the case of `C1COCCO1` [1,4-dioxane], the mass density worked out at 1016.52 ± 0.12 kg/m3.
Same read-out and setting: the figure for `CCCCCCCC[n+]1ccn(C)c1.F[B-](F)(F)F` [1-methyl-3-octylimidazolium tetrafluoroborate] is 1090.9 ± 1 kg/m3; for `C1CCOC1` [tetrahydrofuran] it is 872.16 ± 0.17 kg/m3 and 871.159 ± 0.17 kg/m3; for `CCCCCCn1cc[n+](C)c1.F[B-](F)(F)F` [1-hexyl-3-methylimidazolium tetrafluoroborate] it is 1137.71 ± 1.1 kg/m3.

The data set is the same for the next values; noted with them: 313.15 K; 101.33 kPa; Liquid; Sing-around technique in a fixed-path interferometer.
For the compound `C1COCCO1` [1,4-dioxane], the speed of sound worked out at 1279.4 ± 1.2 m/s.
The same measure, in the same setting: in the case of `CCCCCCCC[n+]1ccn(C)c1.F[B-](F)(F)F` [1-methyl-3-octylimidazolium tetrafluoroborate] it was 1440.9 ± 2.3 m/s; in that of `C1CCOC1` [tetrahydrofuran], 1208.8 ± 1.4 m/s.
Still for that read-out and setting: in the case of `CCCCCCn1cc[n+](C)c1.F[B-](F)(F)F` [1-hexyl-3-methylimidazolium tetrafluoroborate] it was 1459.8 ± 2.3 m/s.

The data set is the same for the next values; noted with them: 313.15 K; 101.33 kPa; Liquid; Vibrating tube method.
As for `C1COCCO1` [1,4-dioxane], the mass density is 1010.83 ± 0.12 kg/m3.
Still for that read-out and setting: the figure for `CCCCCCCC[n+]1ccn(C)c1.F[B-](F)(F)F` [1-methyl-3-octylimidazolium tetrafluoroborate] is 1087.41 ± 1 kg/m3; for `C1CCOC1` [tetrahydrofuran] it is 866.58 ± 0.18 kg/m3; for `CCCCCCn1cc[n+](C)c1.F[B-](F)(F)F` [1-hexyl-3-methylimidazolium tetrafluoroborate] it is 1134.09 ± 1.1 kg/m3.

The same data set, now with this note: 318.15 K; 101.33 kPa; Liquid; Sing-around technique in a fixed-path interferometer.
In the case of `C1COCCO1` [1,4-dioxane], the speed of sound was 1257.8 ± 1.2 m/s.
In the case of `CCCCCCCC[n+]1ccn(C)c1.F[B-](F)(F)F` [1-methyl-3-octylimidazolium tetrafluoroborate], the speed of sound was found to be 1428.2 ± 2.3 m/s.
On the same count and under the same terms, the figure for `C1CCOC1` [tetrahydrofuran] is 1185.2 ± 1.4 m/s; for `CCCCCCn1cc[n+](C)c1.F[B-](F)(F)F` [1-hexyl-3-methylimidazolium tetrafluoroborate] it is 1447.7 ± 2.3 m/s.

Staying with this data set, now noted: 318.15 K; 101.33 kPa; Liquid; Vibrating tube method.
As for `C1COCCO1` [1,4-dioxane], the mass density was 1005.12 ± 0.12 kg/m3.
As for `CCCCCCCC[n+]1ccn(C)c1.F[B-](F)(F)F` [1-methyl-3-octylimidazolium tetrafluoroborate], the mass density was found to be 1084.17 ± 1 kg/m3.
Still for that read-out and setting: in the case of `C1CCOC1` [tetrahydrofuran] it was 860.96 ± 0.18 kg/m3 and 859.955 ± 0.18 kg/m3; in that of `CCCCCCn1cc[n+](C)c1.F[B-](F)(F)F` [1-hexyl-3-methylimidazolium tetrafluoroborate], 1130.49 ± 1.1 kg/m3.

The data set is the same for the next values; noted with them: 323.15 K; 101.33 kPa; Liquid; Sing-around technique in a fixed-path interferometer.
Take `C1COCCO1` [1,4-dioxane]: the speed of sound amounted to 1236.3 ± 1.2 m/s.
Take `CCCCCCCC[n+]1ccn(C)c1.F[B-](F)(F)F` [1-methyl-3-octylimidazolium tetrafluoroborate]: the speed of sound worked out at 1414.7 ± 2.3 m/s.
Still for that read-out and setting: in the case of `C1CCOC1` [tetrahydrofuran] it was 1161.7 ± 1.3 m/s; in that of `CCCCCCn1cc[n+](C)c1.F[B-](F)(F)F` [1-hexyl-3-methylimidazolium tetrafluoroborate], 1435.7 ± 2.3 m/s.

Staying with this data set, now noted: 323.15 K; 101.33 kPa; Liquid; Vibrating tube method.
For the compound `C1COCCO1` [1,4-dioxane], the mass density amounted to 999.4 ± 0.12 kg/m3.
Same read-out and setting: in the case of `CCCCCCCC[n+]1ccn(C)c1.F[B-](F)(F)F` [1-methyl-3-octylimidazolium tetrafluoroborate] it was 1080.75 ± 1 kg/m3; in that of `C1CCOC1` [tetrahydrofuran], 855.29 ± 0.18 kg/m3; in that of `CCCCCCn1cc[n+](C)c1.F[B-](F)(F)F` [1-hexyl-3-methylimidazolium tetrafluoroborate], 1126.89 ± 1.1 kg/m3.

Another data set can be described thus: xn = mol fraction of the nth substance listed. The note with it: 298.15 K; 101 kPa; Liquid; Sing-around technique in a fixed-path interferometer; x2 = 0.
On to `C1COCCO1` [1,4-dioxane] + CCCCCCCC[n+]1ccn(C)c1.F[B-](F)(F)F, for which the speed of sound is 1345 ± 1.2 m/s.
On the same count and under the same terms, in the case of `C1COCCO1` [1,4-dioxane] + CCCCCCn1cc[n+](C)c1.F[B-](F)(F)F it was 1345 ± 1.2 m/s.
On the same count and under the same terms, the figure for `C1CCOC1` [tetrahydrofuran] + CCCCCCn1cc[n+](C)c1.F[B-](F)(F)F is 1280.5 ± 1.4 m/s; for `C1CCOC1` [tetrahydrofuran] + CCCCCCCC[n+]1ccn(C)c1.F[B-](F)(F)F it is 1280.5 ± 1.4 m/s.
